For assay [1], the system named is HSCs from hypercholesterolemic mice. Put plainly: H2O2 in lysates from freshly harvested HSCs. As to conditions: ApoE and HCD mice, in vivo treatment. Further details: species or system mouse. As to the method: HSCs were purified from bone marrow mononuclear cells by multi-parameter FACS sorting using the surface phenotype cKit^+Sca-1^+CD90.1^lowLin^−. A greater percentage of HSCs from ApoE^−/− and HCD mice stain with 2′,7′-dichlorofluorescein diacetate than WT KSL cells, indicating a higher oxidant level in cells from hypercholesterolemic mice. Two additional assays were carried out that confirmed this earlier finding: first, the level of H2O2 in HSC cell lysates, determined by spectrophotometry, was greater in ApoE^−/− and HCD mice than in WT mice (FIG. 42A).

A further assay has as its system p38 MAPK. Briefly: Phosphorylated (activated) p38 MAPK expression in HSCs. The assay is classed as in vivo, mouse. An excerpt: Activation of p38 MAPK by ROS has been reported in Atm^−/− mice and this event participates in ROS-induced loss of HSC quiescence. Expression of p38 MAPK was similar in HSCs from ApoE^−/−, HCD, and WT mice. However, expression of activated (phosphorylated) p38 MAPK is greater in HSCs from hypercholesterolemic mice than from WT mice (FIGS. 44A and 44B). FIGS. 44A-44C show p38 MAPK activation is greater in HSC from hypercholesterolemic mice. […] Neither treatment affected the outcome of competitive transplant with WT HSCs. m±sd, n=5 mice per group, *p<0.05 vs. WT, † p<0.05 vs. ApoE.

In another assay the test system is Notch1. Briefly: Notch1 expression in HSCs, early T progenitor cells and thymocytes (Example 6). The note with it: hypercholesterolemic mice, 4 weeks. It counts as in vivo, mouse. As to the method:
Cells were stained with monoclonal antibodies conjugated to various fluoroprobes. These antibodies included: Notch1, cKit (2B8), Sca-1 (E13-161.7), CD4 (L3T4), CD8 (53-6.72), CD90.1, CD25, CD44, TCRβ, NK1.1, γδTCR, CD45.1, CD45.2. The lineage cocktail consisted of CD4, CD8, B220 (RA3-6B2), TER-119, Mac-1 (MI/70), and Gr-1 (RB6-8C5). All antibodies were purchased from BD Bioscience (San Diego, Calif.). FACS analysis was carried out on a FACS Diva.
The Notch signaling pathways are expressed extensively in the hematopoietic system. Notch signaling dominates the regulation of proliferation, self-renewal, and lineage commitment of HSCs in the bone marrow as well as their downstream differentiation and maturation in the thymus (23-28). Moreover, Notch1 appears to participate in the differentiation of the unique T cell subsets, NKT cells and γδT cells (29-32). In this context, the mechanistic basis between HSC oxidant stress and aberrant lineage specification toward NKT and γδT cells in hypercholesterolemic mice was evaluated by determining Notch expression in HSC, bone marrow T cell progenitors, and immature thymocytes. […] Notch1 expression was evaluated in HSCs, early T progenitor cells, and thymocytes differs between ApoE^−/− and WT mice. […] Notch1 expression also was evaluated in HSCs, early T progenitor cells, and thymocytes differs between HCD and WT mice. […]

Assay [2] concerns p19^Arf, p21^Waf1, and p27^Kip1. Put plainly: RT-PCR expression of p19^Arf, p21^Waf1, p27^Kip1 in HSCs. It counts as in vivo, mouse. As to conditions: ApoE^−/− mice, in vivo treatment. As to the method:
The expression of p15^Ink4b, p16^Ink4a, p18^Ink4c, p19^ARF, P21^Waf1, and p27^Kip1 was determined using RT-PCR, a more sensitive and quantitative assay, in ApoE^−/− and WT HSCs.

The test system of another assay is db/db MSC. Briefly: Response of db/db MSC to adipogenic medium (Oil Red O staining). It counts as cell-based, mouse. As to the method: Adipocytes were identified by Oil Red O staining. m±sd, n=5, *p<0.05.
Adipocytes were identified by Oil Red O staining. m±sd, n=4, *p<0.05 vs control. […] Endothelial cells were identified by CD31 staining. m±sd, n=4, *p<0.05 vs control, #p<0.05 vs 5 nM.

In assay [3] the test system is hematopoietic stem cells (HSCs). Briefly: DCF-DA staining of HSCs from hypercholesterolemic mice (Example 6). As to conditions: ApoE^−/− and HCD mice, 100 mg/Kg i.p. every other day for 4 weeks. It counts as in vivo, mouse. An excerpt: All mice were purchased from Jackson Laboratories (Bar Harbor, Me.) and were maintained in the mouse barrier facility. Care of mice was in accordance with NIH guidelines and the Institutional Animal Care and Use Committee of the University of Massachusetts Medical School approved all protocols. Mice were kept on a 12 hr day/night schedule and were allowed free access to chow and water. ApoE^−/− and WT mice were fed standard mouse chow (5.4 g fat/100 g diet, 0% cholesterol). HCD mice were fed a diet with 10 g fat/100 g diet, […] (Research Diets, New Brunswick, N.J.). […] Azoxymethane (AOM) was given by intraperitoneal injection (10 mg/Kg weekly for 3 weeks); 1% dextran sodium sulfate was added to the drinking water for the Pt week after AOM treatment. It is known that hypercholesterolemia induces oxidant stress in many cell types. […] FIGS. 49A-49C show hypercholesterolemia increases oxidant levels in hematopoietic stem cells. […] (B) Representative photomicrograph showing oxLDL-staining in HSC and BM-MNC from WT and ApoE^−/− mice. (C) Regression of mean polyp number/mouse on the % of HSC staining for DCF-DA. […] Statistical analysis was carried out using the means for each group. […] One of the principal means by which hypercholesterolemia induces oxidant stress is via the generation of oxidized low density lipoprotein (oxLDL).

Turning to `CC(=O)N[C@@H](CS)C(=O)O` [NAC, N-acetylcysteine], the “H2O2 in HSC lysates” value in assay [1] was “significantly decreased by in vivo NAC treatment”. Further, the “expression of activated p38 in HSCs” value in the assay on p38 MAPK (ApoE^−/− mice, in vivo treatment) is “significantly reduced expression of activated p38 in ApoE^−/− HSCs”; with p38 MAPK (WT mice) it was “had no effect on activated p38 expression in WT HSCs”. In addition, the “differences in Notch1 expression in HSCs, T progenitor cells and thymocytes” value in the assay on Notch1 was “significantly reversed by in vivo treatment with NAC for 4 weeks”. Further, the “HSC expression of p19^Arf, p21^Waf1, and p27^Kip1” value in assay [2] is recorded as “fully reversed these increases”. Further, the differentiation towards adipocytes result in the assay with db/db MSC is on record as “reduced adipogenesis”. Further, the “DCF-DA staining in HSCs” value in assay [3] is “significantly reversed”.

Source of the values: US11090305B2, “Methods and compositions to reduce oxidative stress” (University of Massachusetts, priority 2009, dated 2021).
